Reference: publication PMC10977697 (PLOS ONE, 2024)
Where no end group is shown, it is not given here.

Tested on: ApoL1
Assay: Spot phage ELISA, ApoL1
Type: binding, human
Settings: ratio of signal for target protein over BSA background

Which S/N does the source give for “GCKFMNWKCKQDSDCLAGCVCTENEPCG (also: bicyclic or more (positions not given here)) [ApoL1 EET I-II 2]” here?
Its S/N is 53.2.

How did the S/N turn out when “GCKFRLWFCKQDSYCLPGCVCGPNGFCG (also: bicyclic or more (positions not given here)) [ApoL1 EET I-II 42]” was run?
The S/N was 7.2.

How did the S/N turn out when “GCKFRLWHCKQDSDCLAGCVCTAQPDCG (also: bicyclic or more (positions not given here)) [ApoL1 EET I-II 47]” was run?
The S/N was 3.6.

Which S/N does the source give for “GCKFRNWLCKQDSDCLAGCVCPWDTHCG (also: bicyclic or more (positions not given here)) [ApoL1 EET I-II 43]” here?
Its S/N is 6.6.

“GCKFRRWKCKQDSDCLAGCVCDPQGPCG (also: bicyclic or more (positions not given here)) [ApoL1 EET I-II 39]” was tested. Which S/N did it give?
Its S/N is 9.9.

Which S/N does the source give for “GCKFWFWRLCKQDSDCLAGCVCAGSPPCG (also: bicyclic or more (positions not given here)) [ApoL1 EET I-II 35]” here?
Its S/N is 14.1.

Which S/N does the source give for “GCKFWLHRYKQDSDCLAGCVCGPNVFG [ApoL1 EET I-II 4]” here?
Its S/N is 47.1.

How did the S/N turn out when “GCKFWSRFCKQDSDCLAGCVCKNTDHCG (also: bicyclic or more (positions not given here)) [ApoL1 EET I-II 6]” was run?
The S/N was 44.8.

Which S/N does the source give for “GCKMKKYMCKQDSDCLAGCVCHQQSKCG (also: bicyclic or more (positions not given here)) [ApoL1 EET I-II 40]” here?
The S/N was 8.9.

For “GCKYKCKQDSDCLAGCVCQQQGGCG (also: bicyclic or more (positions not given here)) [ApoL1 EET I-II 14]”, which S/N is on record?
The S/N was 40.2.

Which S/N does the source give for “GCLFKKAMGFCKQDSDCLAGCVCREMSHCG (also: bicyclic or more (positions not given here)) [ApoL1 EET I-II 3]” here?
Its S/N is 52.4.

For “GCLFKQEMGTCKQDSDCLAGCVCEFQQKCG (also: bicyclic or more (positions not given here)) [ApoL1 EET I-II 16]”, which S/N is on record?
Its S/N is 40.2.

For “GCLFKRHFCKQDSDCLAGCVCVDQFPCG (also: bicyclic or more (positions not given here)) [ApoL1 EET I-II 21]”, which S/N is on record?
The S/N was 35.5.

For “GCLFRRNFCKQDSDCLAGCVCEPFPECG (also: bicyclic or more (positions not given here)) [ApoL1 EET I-II 31]”, which S/N is on record?
Its S/N is 17.5.

How did the S/N turn out when “GCMFKAHWCKQDSDCLAGCVCHRSALCG (also: bicyclic or more (positions not given here)) [ApoL1 EET I-II 12]” was run?
Its S/N is 41.1.

Which S/N does the source give for “GCMFKQRHCKQDSDCLAGCVCSQGQPCG (also: bicyclic or more (positions not given here)) [ApoL1 EET I-II 5]” here?
Its S/N is 47.1.

How did the S/N turn out when “GCMFKRYFCKQDSDCLAGCVCPHDDQCG (also: bicyclic or more (positions not given here)) [ApoL1 EET I-II 34]” was run?
Its S/N is 14.2.

Which S/N does the source give for “GCMFLRHFNRCKQDSDCLAGCVCPHIPDCG (also: bicyclic or more (positions not given here)) [ApoL1 EET I-II 26]” here?
Its S/N is 24.0.

Which S/N does the source give for “GCMFQMHFCKQDSDCLAGCVCGMSDCCG [ApoL1 EET I-II 27]” here?
The S/N was 23.7.

With “GCRFKRHKCKQDSDCLAGCVCPEMSTCG (also: bicyclic or more (positions not given here)) [ApoL1 EET I-II 15]” as the sequence, how does the S/N read?
Its S/N is 40.2.

How did the S/N turn out when “GCRFMSHMRKRECKQDSDCLAGCVCDYQTACG (also: bicyclic or more (positions not given here)) [ApoL1 EET I-II 1]” was run?
The S/N was 70.0.

With “GCRFREMFYKVTCKQDSDCLAGCVCSHEANCG (also: bicyclic or more (positions not given here)) [ApoL1 EET I-II 8]” as the sequence, how does the S/N read?
Its S/N is 43.8.

For “GCRFRLWAMKSHCKQDSDCLAGCVCSDYSDCG (also: bicyclic or more (positions not given here)) [ApoL1 EET I-II 13]”, which S/N is on record?
Its S/N is 40.4.

How did the S/N turn out when “GCRFRQHWCKQDSDCLAGCVCLEQPECG (also: bicyclic or more (positions not given here)) [ApoL1 EET I-II 24]” was run?
Its S/N is 30.3.
